Measurements: patent US20080058391A1, “NOVEL COMPOUNDS” (GLAXO GROUP LIMITED, priority 2006, published 2008)
Where a name gives a salt, the structure may show the parent alone.

Test system: male Sprague Dawley rats
Experiment: Rat mustard oil model of visceral pain
Assay type: in vivo
Conditions: data combined from two studies
Method: All behavioural responses consistent with the presence of pain were determined following intra rectal injection of mustard oil in male Sprague Dawley rats. Typical behavioural responses consistent with the presence of pain following intra-colonic mustard oil injection include: arching, abdominal lifting, abdominal tensing, stretching, extending the rear leg (when lying down), raising and lowering the testicles, tip-toeing and writhing.
Male Sprague Dawley rats (130 g-160 g) were briefly sedated with 50% oxygen/50% carbon dioxide and 0.2 ml of 3% mustard oil injected into the colorectum, 1.5 cm from the anus. The anus was plugged with vaseline and animals placed in observational cages to which they had previously been acclimatised for 45 minutes prior to mustard oil injection. The number of visceral pain related behaviours, which consisted primarily of abdominal arching, were counted over a 25 minute period and the animals culled by cervical dislocation.
In separate studies, the effects of alosetron (0.1, 0.3 and 1.0 mg/kg n=10 per group), gabapentin (10, 30 and 100 mg/kg n=10 per group) and amitriptyline (3, 10 and 30 mg/kg n=9-10 per group) or vehicle (saline for alosetron and amitriptyline 10% 1-methyl-2-pyrolidone in saline for gabapentin n=10 per study) given sub cutaneously 15 minutes prior to injection of 3% mustard oil were examined on pain behaviour. Results are expressed as mean reduction in percentage of behaviours compared to vehicle treated animals and were statistically compared to vehicle treated animals using a one way ANOVA with Dunnett's comparison, p<0.05 considered significant.
The effect of the compound of Example 1 (0.1, 0.3, 1.0, 3.0, 10 and 30 mg/kg, n 9-20 per dosage) or vehicle (1% methyl cellulose, n=20) given orally 60 minutes prior to injection of mustard oil (3% mustard oil, 70% ethanol in saline) were examined on pain behaviour. The total number of visceral pain related behaviours, which consisted primarily of abdominal arching, were counted over a 25 minute period and the animals culled by cervical dislocation. Behaviours were normalised as the percentage of the vehicle group mean and expressed as mean percentage reductions. Data was combined from two studies and normalised as the percentage of the vehicle group mean for each individual study and expressed as a mean percentage reduction for both studies. Percentage reduction of behaviours compared to vehicle treated animals were analysed statistically using a one way ANOVA with Dunnett's comparison, p<0.05 considered significant.

**Q.** With `CC(C)(NCc1cc(-c2ccc(C(F)(F)F)cc2)ccn1)C(N)=O` [Example E1, 2-Methyl-N^2-({4-[4-trifluoromethyl)phenyl]-2-pyridinyl}methyl)alaninamide hydrochloride] as the compound, how does the “reduction in behaviours compared to vehicle treated animals” value (“reduction in behaviours” for short) (0.1 mg/kg orally 60 minutes prior to mustard oil) read?
**A.** The value was 16%.

**Q.** And the “reduction in behaviours” value (0.3 mg/kg orally 60 minutes prior to mustard oil)?
**A.** The value was 24%.

**Q.** And the “reduction in behaviours” value (1.0 mg/kg orally 60 minutes prior to mustard oil)?
**A.** The value was 41%.

**Q.** What about the “reduction in behaviours” value (3.0 mg/kg orally 60 minutes prior to mustard oil) of the same compound?
**A.** Its value is 64%.

**Q.** What about the “reduction in behaviours” value (10 mg/kg orally 60 minutes prior to mustard oil) of the same compound?
**A.** Its value is 76%.

**Q.** And the “reduction in behaviours” value (30 mg/kg orally 60 minutes prior to mustard oil)?
**A.** Its value is 85%.
